# Columns and labels:
# Experiment in all cases: relative viability (nuclei count vs DMSO), 5 days (fraction); higher = more cells survive
# BGJ398 + Tozasertib = compound: CCN1CCN(c2ccc(Nc3cc(N(C)C(=O)Nc4c(Cl)c(OC)cc(OC)c4Cl)ncn3)cc2)CC1 [BGJ398] + Cc1cc(Nc2cc(N3CCN(C)CC3)nc(Sc3ccc(NC(=O)C4CC4)cc3)n2)n[nH]1 [Tozasertib] (partner 0.1 µM)
# Method in brief: (§1)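 Cells from lung cancer lines were seeded into 1536-well plates and, one day later, dosed by pin tool. Treatments were either a single drug or a fixed dose of an anchor drug with five library-drug doses (not always all listed) in √10 steps. After 5 days, nuclei were stained in a one-step fixation (final 0.05% Triton X-100, 1% formaldehyde, 1 ug/ml Hoechst) and counted on 4× images, and relative viability is the treated-to-vehicle nuclei ratio, as the median of duplicate plates.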
# BGJ398 + Bortezomib = compound: CCN1CCN(c2ccc(Nc3cc(N(C)C(=O)Nc4c(Cl)c(OC)cc(OC)c4Cl)ncn3)cc2)CC1 [BGJ398] + CC(C)C[C@H](NC(=O)[C@H](Cc1ccccc1)NC(=O)c1cnccn1)B(O)O [Bortezomib] (partner 0.002 µM)
# Method in brief: as §1
# BGJ398 + Pemetrexed = compound: CCN1CCN(c2ccc(Nc3cc(N(C)C(=O)Nc4c(Cl)c(OC)cc(OC)c4Cl)ncn3)cc2)CC1 [BGJ398] + Nc1nc2[nH]cc(CCc3ccc(C(=O)N[C@@H](CCC(=O)O)C(=O)O)cc3)c2c(=O)[nH]1 [Pemetrexed] (partner 0.2 µM)
# Method in brief: as §1
# [1] = compound: C1=CC2=NC=CN=C2C=C1/C=C/3\C(=O)NC(=O)S3 + Cc1nc(Nc2ncc(C(=O)Nc3c(C)cccc3Cl)s2)cc(N2CCN(CCO)CC2)n1 [Dasatinib] (partner 0.075 µM)
# Method in brief: as §1
Cell Line,relative viability (BGJ398 + Tozasertib; first compound 0.01 µM),relative viability (BGJ398 + Tozasertib; first compound 0.03162 µM),relative viability (BGJ398 + Tozasertib; first compound 0.1 µM),relative viability (BGJ398 + Tozasertib; first compound 0.3162 µM),relative viability (BGJ398 + Tozasertib; first compound 1 µM),relative viability (BGJ398 + Bortezomib; first compound 0.01 µM),relative viability (BGJ398 + Bortezomib; first compound 0.03162 µM),relative viability (BGJ398 + Bortezomib; first compound 0.1 µM),relative viability (BGJ398 + Bortezomib; first compound 0.3162 µM),relative viability (BGJ398 + Bortezomib; first compound 1 µM),relative viability (BGJ398 + Pemetrexed; first compound 0.01 µM),relative viability (BGJ398 + Pemetrexed; first compound 0.03162 µM),relative viability (BGJ398 + Pemetrexed; first compound 0.1 µM),relative viability (BGJ398 + Pemetrexed; first compound 0.3162 µM),relative viability (BGJ398 + Pemetrexed; first compound 1 µM),relative viability ([1]; first compound 0.02 µM),relative viability ([1]; first compound 0.06325 µM),relative viability ([1]; first compound 0.2 µM),relative viability ([1]; first compound 0.6325 µM),relative viability ([1]; first compound 2 µM)
LCLC-97TM1,0.239,0.224,0.293,0.23,0.35,0.685,0.492,0.789,0.529,0.329,0.172,0.236,0.161,0.174,0.162,0.974,0.762,0.775,0.8,0.306
LCLC-103H,0.429,0.445,0.424,0.487,0.341,1.15,1.02,1.07,0.963,0.875,0.459,0.503,0.401,0.494,0.541,0.427,0.571,0.474,0.461,0.214
LOU-NH91,0.656,,0.698,0.541,0.737,0.483,0.498,0.547,0.54,0.472,0.375,0.407,0.408,0.376,0.381,0.568,0.597,0.551,0.525,0.354
LU99A,0.286,0.282,0.261,0.197,0.265,1.08,1.23,1.23,1.13,1.09,0.176,0.182,0.169,0.224,0.204,0.576,0.922,0.462,0.508,0.287
LXF-289,0.173,0.189,0.207,0.167,0.196,0.951,0.918,0.918,0.888,0.896,0.923,0.849,0.88,0.801,0.923,0.192,0.176,0.254,0.215,0.0852
NCI-H23,0.387,0.339,0.335,0.36,0.304,0.946,1.05,1.19,1.2,1,0.735,0.652,0.528,0.715,0.541,0.703,0.976,0.715,0.754,0.29
NCI-H322M,0.479,0.462,0.461,0.525,0.521,1.14,0.989,1.21,1.21,1.24,0.662,0.635,0.637,0.603,0.631,0.274,0.27,0.269,0.239,0.238
NCI-H441,0.702,0.652,0.529,0.615,0.687,0.398,0.991,0.861,0.4,0.472,,0.234,0.243,0.251,0.288,0.797,0.526,0.7,0.573,0.281
